According to the NIST ThermoML archive (doi:10.1016/j.jct.2015.09.034):
Numbers after ± are expanded uncertainties.

Conditions: Liquid, Buoyancy - hydrostatic balance with magnetic suspension - one sinker

## C [methane]
105 K, 185.5 kPa
  mass density: 432.098 ± 0.16 kg/m3
105 K, 478.95 kPa
  mass density: 432.339 ± 0.16 kg/m3
105 K, 973.88 kPa
  mass density: 432.743 ± 0.16 kg/m3
105 K, 1970.8 kPa
  mass density: 433.554 ± 0.17 kg/m3
105 K, 5044.6 kPa
  mass density: 435.981 ± 0.17 kg/m3
115 K, 479.33 kPa
  mass density: 417.827 ± 0.16 kg/m3
115 K, 973.28 kPa
  mass density: 418.319 ± 0.16 kg/m3
115 K, 1970 kPa
  mass density: 419.298 ± 0.16 kg/m3
125 K, 477.88 kPa
  mass density: 402.38 ± 0.15 kg/m3
125 K, 972.71 kPa
  mass density: 402.99 ± 0.15 kg/m3
125 K, 1970.4 kPa
  mass density: 404.194 ± 0.15 kg/m3
125 K, 5112.4 kPa
  mass density: 407.803 ± 0.15 kg/m3
135 K, 783.75 kPa
  mass density: 386.1 ± 0.15 kg/m3
135 K, 1001.2 kPa
  mass density: 386.441 ± 0.15 kg/m3
135 K, 2014.3 kPa
  mass density: 387.992 ± 0.15 kg/m3
135 K, 5208.9 kPa
  mass density: 392.557 ± 0.15 kg/m3
